Experiments:
blood glucose levels [1] = assay: Decrease in % blood glucose levels after intra-gastric administration; format: in vivo, Male Sprague Dawley rats; settings: 50 IU/kg
blood glucose levels [2] = assay: Decrease in % blood glucose levels after intra-ileal administration; format: in vivo, Male Sprague Dawley rats; settings: 50 IU/kg
blood glucose levels [3] = assay: % blood glucose decrease after intranasal administration; format: in vivo, Male Sprague Dawley rats; settings: for Tmax of % blood glucose decrease: sampling times in minutes
Experimental: The cannulation of the carotis communis artery for the collection of blood samples was also performed as described in Example 1 as was the determination of plasma levels and blood glucose levels.

[4] = rat, in vivo
Experimental: Male Sprague Dawley rats with a body mass of between 240 and 336 g were used as experimental in vivo model to investigate the absorption and efficacy enhancing capabilities of the current invention.
In this study, insulin was directly administered into the stomach, ileum or duodenum of the animals. […] Six animals were used for each group in the study. Rats were fasted 18 hours prior to drug administration but water was supplied ad libitum. […] The conditions under which the rats were bred and kept were 21° C. with a relative humidity of 55%, a light intensity of between 350-400 lux one meter above floor level with light cycles of 12 hours light and 12 dark and 18 air changes per minute.
Subcutaneous injection of insulin in one group was used to validate assaying procedures. The normal rat glucose and insulin profile was determined in a group that received only saline; this group acted as biological reference.
Cannulation of the artery carotis communis, ensured that sufficient blood volumes from the same rat at different time intervals could be obtained for analysis. Anaesthesia was induced by halothane and lasted for ±3 hours. All surgical procedures necessary for the cannulation of the carotis communis were carried out while the rats were under anaesthesia. […]

Substance: Insulin in saline: Control: recombinant human insulin (Sigma-Aldrich) in saline solution without any enhancing agent
- AUC, decrease in the % of blood glucose levels (blood glucose levels [1]): 275.5
- Tmax, decrease in the % of blood glucose levels (blood glucose levels [1]): 30 min
- AUC, decrease in the % of blood glucose levels (blood glucose levels [2]): 13.81
- Tmax, decrease in the % of blood glucose levels (blood glucose levels [2]): 10 min
- AUC of % blood glucose decrease (blood glucose levels [3]; 8 IU/kg): 46
- Cmax of % blood glucose decrease (blood glucose levels [3]; 8 IU/kg): 10.03%
- Tmax of % blood glucose decrease (blood glucose levels [3]; 8 IU/kg): 15
- % blood glucose decrease (blood glucose levels [3]; 8 IU/kg, time 0 min): 0%
- % blood glucose decrease (blood glucose levels [3]; 8 IU/kg, time 5 min): −1.18%
- % blood glucose decrease (blood glucose levels [3]; 8 IU/kg, time 10 min): 5.58%
- % blood glucose decrease (blood glucose levels [3]; 8 IU/kg, time 15 min): 10.033%
- % blood glucose decrease (blood glucose levels [3]; 8 IU/kg, time 30 min): 5.27%
- % blood glucose decrease (blood glucose levels [3]; 8 IU/kg, time 60 min): 3.47%
- % blood glucose decrease (blood glucose levels [3]; 8 IU/kg, time 120 min): 2.05%
- % blood glucose decrease (blood glucose levels [3]; 8 IU/kg, time 180 min): −26.58%
- AUC of % blood glucose decrease (blood glucose levels [3]; 12 IU/kg): 32.2
- Cmax of % blood glucose decrease (blood glucose levels [3]; 12 IU/kg): 6.48%
- Tmax of % blood glucose decrease (blood glucose levels [3]; 12 IU/kg): 5
- % blood glucose decrease (blood glucose levels [3]; 12 IU/kg, time 0 min): 0%
- % blood glucose decrease (blood glucose levels [3]; 12 IU/kg, time 5 min): 6.48%
- % blood glucose decrease (blood glucose levels [3]; 12 IU/kg, time 10 min): −0.08%
- % blood glucose decrease (blood glucose levels [3]; 12 IU/kg, time 15 min): −4.4%
- % blood glucose decrease (blood glucose levels [3]; 12 IU/kg, time 30 min): −8.32%
- % blood glucose decrease (blood glucose levels [3]; 12 IU/kg, time 60 min): −13.98%
- % blood glucose decrease (blood glucose levels [3]; 12 IU/kg, time 120 min): −30.7%
- % blood glucose decrease (blood glucose levels [3]; 12 IU/kg, time 180 min): −40.55%
- Tmax [4]: 5 min

— US20130344157A1, “ENHANCEMENT OF THE EFFICACY OF THERAPEUTIC PROTEINS” (North-West University, priority 2007, published 2013)
